pKi: −log10 of the molar value.
Tests used:
[1] = molecular target: T1, JAK3 (Homo sapiens, UniProt P52333); experiment: JAK3 inhibition assay (ELISA, Poly (Glu, Ala, Tyr) coated plates); type: biochemical; details: 2 mM ATP, 60 minutes at 30° C.
T1 sequence (P52333 1-1124): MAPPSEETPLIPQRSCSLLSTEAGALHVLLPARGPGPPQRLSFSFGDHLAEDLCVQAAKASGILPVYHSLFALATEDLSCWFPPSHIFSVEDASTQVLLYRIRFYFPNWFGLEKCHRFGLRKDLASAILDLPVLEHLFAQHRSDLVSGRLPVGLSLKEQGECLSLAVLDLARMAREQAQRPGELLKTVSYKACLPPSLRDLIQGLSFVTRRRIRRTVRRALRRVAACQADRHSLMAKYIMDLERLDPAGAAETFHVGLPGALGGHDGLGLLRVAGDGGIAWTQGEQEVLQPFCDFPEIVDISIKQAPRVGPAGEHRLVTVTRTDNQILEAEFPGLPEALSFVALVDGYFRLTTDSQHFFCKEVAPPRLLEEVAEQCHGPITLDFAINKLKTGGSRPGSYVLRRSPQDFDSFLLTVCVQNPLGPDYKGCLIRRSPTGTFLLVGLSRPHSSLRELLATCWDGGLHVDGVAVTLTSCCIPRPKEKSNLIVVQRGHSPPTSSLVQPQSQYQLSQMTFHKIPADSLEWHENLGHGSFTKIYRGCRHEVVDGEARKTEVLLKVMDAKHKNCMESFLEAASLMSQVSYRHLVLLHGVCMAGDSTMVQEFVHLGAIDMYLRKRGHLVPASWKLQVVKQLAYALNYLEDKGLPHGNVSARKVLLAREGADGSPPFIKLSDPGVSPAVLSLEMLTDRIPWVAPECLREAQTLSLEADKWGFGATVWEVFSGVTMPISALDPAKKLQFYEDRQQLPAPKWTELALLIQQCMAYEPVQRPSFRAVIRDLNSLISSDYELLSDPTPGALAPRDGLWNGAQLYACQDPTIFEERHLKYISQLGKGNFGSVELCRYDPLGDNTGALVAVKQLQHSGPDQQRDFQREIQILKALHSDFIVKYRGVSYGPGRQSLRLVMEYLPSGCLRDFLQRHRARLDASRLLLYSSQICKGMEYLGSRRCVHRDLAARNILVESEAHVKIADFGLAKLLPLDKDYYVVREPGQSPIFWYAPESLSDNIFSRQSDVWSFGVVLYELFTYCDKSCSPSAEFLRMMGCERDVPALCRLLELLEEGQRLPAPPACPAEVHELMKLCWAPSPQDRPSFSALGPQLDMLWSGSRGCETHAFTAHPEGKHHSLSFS
Procedure, shortened: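 ELISA on Poly(Glu,Ala,Tyr) 6:3:1-coated plates with 2 mM ATP and 5 mM MgCl2. JAK enzyme started the reaction, run 60 min at 30° C. Phosphotyrosine was detected with HRP-conjugated 4G10 antibody and TMB, read at 450 nm, and IC50 was derived from optical densities.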

[2] = molecular target: T2, c-KIT (Homo sapiens, UniProt P10721); experiment: Inhibition of c-KIT, radiometric filter-binding assay; type: biochemical; details: 700 μM ATP, 0.5 mg/mL pE4Y, room temperature
T2 construct: 0.02% BSA and 25 nM c-KIT
Procedure: Compounds are screened for their ability to inhibit c-KIT activity using a radiometric filter-binding assay. This assay monitors the ^33P incorporation into a substrate poly(Glu, Tyr) 4:1 (pE4Y). Reactions are carried out in a solution containing 100 mM HEPES (pH 7.5), 10 mM MgCl2, 25 mM NaCl, 1 mM DTT, 0.01% BSA and 2.5% DMSO. Final substrate concentrations in the assay were 700 μM ATP and 0.5 mg/mL pE4Y (both from Sigma Chemicals, St Louis, Mo.). The final concentration of compounds is generally between 0.01 and 5 μM. Typically, a 12-point titration is conducted by preparing serial dilutions from 10 mM DMSO stock of test compound. Reactions were carried out at room temperature.
Two assay solutions are prepared. Solution 1 contains 100 mM HEPES (pH 7.5), 10 mM MgCl2, 25 mM NaCl, 1 mg/ml pE4Y and 1.4 mM ATP(containing 0.5 μCi of [γ-^33P]ATP for each reaction). Solution 2 contains 100 mM HEPES (pH 7.5), 10 mM MgCl2, 25 mM NaCl, 2 mM DTT, 0.02% BSA and 25 nM c-KIT. The assay is run on a 96 well plate by mixing 33 μL of Solution1 and 1.65 μL of the test compounds. The reaction is initiated with 33 μL of Solution2. After incubation for 20 minutes at room temperature, the reaction was stopped with 50 μL of 10% TCA containing 0.2 mM of ATP. All of the reaction volume is then transferred to a filter plate and washed with 5% TCA by a Harvester9600 from TOMTEC (Hamden, Conn.). The amount of ^33P incorporation into pE4y is analyzed by a Packard TopCount Microplate Scintillation Counter (Meriden, Conn.). The data is fitted using Prism software to get an IC50 or Ki.

T2 sequence (P10721 26-976): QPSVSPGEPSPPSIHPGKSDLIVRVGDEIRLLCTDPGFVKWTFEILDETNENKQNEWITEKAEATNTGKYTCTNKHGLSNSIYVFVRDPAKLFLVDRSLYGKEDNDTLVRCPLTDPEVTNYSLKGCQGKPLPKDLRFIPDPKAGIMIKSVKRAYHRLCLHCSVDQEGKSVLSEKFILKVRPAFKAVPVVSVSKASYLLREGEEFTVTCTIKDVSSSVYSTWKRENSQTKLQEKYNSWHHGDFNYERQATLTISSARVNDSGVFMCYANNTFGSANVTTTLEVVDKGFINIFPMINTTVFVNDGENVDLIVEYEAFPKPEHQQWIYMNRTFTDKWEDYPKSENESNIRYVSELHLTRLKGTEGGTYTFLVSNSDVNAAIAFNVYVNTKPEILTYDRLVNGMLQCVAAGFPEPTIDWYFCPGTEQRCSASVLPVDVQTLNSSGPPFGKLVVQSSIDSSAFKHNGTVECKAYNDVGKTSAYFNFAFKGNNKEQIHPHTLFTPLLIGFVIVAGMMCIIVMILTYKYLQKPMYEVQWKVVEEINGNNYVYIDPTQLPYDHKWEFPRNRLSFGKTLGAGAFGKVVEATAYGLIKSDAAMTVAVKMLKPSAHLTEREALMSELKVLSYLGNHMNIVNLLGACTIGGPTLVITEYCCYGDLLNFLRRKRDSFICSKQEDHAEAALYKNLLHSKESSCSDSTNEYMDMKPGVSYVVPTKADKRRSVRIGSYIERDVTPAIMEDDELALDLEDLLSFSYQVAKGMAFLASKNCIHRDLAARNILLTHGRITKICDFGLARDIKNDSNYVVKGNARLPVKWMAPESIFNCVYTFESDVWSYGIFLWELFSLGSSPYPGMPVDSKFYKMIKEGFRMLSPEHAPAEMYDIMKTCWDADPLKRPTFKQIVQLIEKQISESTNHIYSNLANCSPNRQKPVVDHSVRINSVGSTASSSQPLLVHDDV

`Fc1cccc(-c2cnoc2-c2c[nH]c3ncccc23)c1F` [Compound 1, 3-[4-(2,3-Difluoro-phenyl)-isoxazol-5-yl]-1H-pyrrolo[2,3-b]pyridine] showed a pKi [1] of 6.00 to 6.70 and a pKi [2] greater than 6.70.

`COc1cnc2[nH]cc(-c3oncc3-c3cccc(F)c3F)c2c1` [Compound 38, 3-[4-(2,3-Difluoro-phenyl)-isoxazol-5-yl]-5-methoxy-1H-pyrrolo[2,3-b]pyridine] was tested, and the pKi [1] was greater than 6.70 and the pKi [2] was greater than 6.70.

In the case of `Fc1ccc(-c2cnoc2-c2c[nH]c3ncccc23)c(F)c1F` [Compound 40, 3-[4-(2,3,4-Trifluoro-phenyl)-isoxazol-5-yl]-1H-pyrrolo [2,3-b]pyridine], the pKi [1] was 4.90 to 6.00 and the pKi [2] was 6.00 to 6.70.

Compound `Oc1cnc2[nH]cc(-c3oncc3-c3cccc(F)c3F)c2c1` [Compound 43, 3-[4-(2,3-Difluoro-phenyl)-isoxazol-5-yl]-1H-pyrrolo[2,3-b]pyridin-5-ol] has a pKi [1] greater than 6.70 and a pKi [2] greater than 6.70.

Compound `Oc1cnc2[nH]cc(-c3oncc3-c3cccc(Cl)c3Cl)c2c1` [Compound 48, 3-[4-(2,3-Dichloro-phenyl)-isoxazol-5-yl]-1H-pyrrolo[2,3-b]pyridin-5-ol] has a pKi [1] greater than 6.70 and a pKi [2] of 6.00 to 6.70.

For `COc1cnc2[nH]cc(-c3oncc3-c3cccc(Cl)c3Cl)c2c1` [Compound 49, 3-[4-(2,3-Dichloro-phenyl)-isoxazol-5-yl]-5-methoxy-1H-pyrrolo[2,3-b]pyridine], the pKi [1] was greater than 6.70 and the pKi [2] was greater than 6.70.

Compound `CN(C)CC#Cc1cnc2[nH]cc(-c3oncc3-c3cccc(F)c3F)c2c1` [Compound 53, (3-{3-[4-(2,3-Difluoro-phenyl)-isoxazol-5-yl]-1H-pyrrolo[2,3-b]pyridin-5-yl}-prop-2-ynyl)-dimethyl-amine] has a pKi [1] of 6.00 to 6.70 and a pKi [2] greater than 6.70.

In the case of `Fc1cccc(-c2cnoc2-c2c[nH]c3ncc(-c4ccncc4)cc23)c1F` [Compound 57, 3-[4-(2,3-Difluoro-phenyl)-isoxazol-5-yl]-5-pyridin-4-yl-1H-pyrrolo[2,3-b]pyridine], the pKi [1] was greater than 6.70 and the pKi [2] was greater than 6.70.

For `Fc1cccc(-c2cnoc2-c2c[nH]c3ncc(-c4cccnc4)cc23)c1F` [Compound 59, 3-[4-(2,3-Difluoro-phenyl)-isoxazol-5-yl]-5-pyridin-3-yl-1H-pyrrolo[2,3-b]pyridine], the pKi [1] was greater than 6.70 and the pKi [2] was greater than 6.70.

In the case of `CN1CCC(c2cnc3[nH]cc(-c4oncc4-c4cccc(F)c4F)c3c2)CC1` [Compound 60, 3-[4-(2,3-Difluoro-phenyl)-isoxazol-5-yl]-5-(1-methyl-piperidin-4-yl)-1H-pyrrolo[2,3-b]pyridine], the pKi [1] was 4.90 to 6.00 and the pKi [2] was 6.00 to 6.70.

With `CN(C)c1cccc(-c2cnc3[nH]cc(-c4oncc4-c4cccc(F)c4F)c3c2)c1` [Compound 61, (3-{3-[4-(2,3-Difluoro-phenyl)-isoxazol-5-yl]-1H-pyrrolo[2,3-b]pyridin-5-yl}-phenyl)-dimethyl-amine] the pKi [1] was 6.00 to 6.70 and the pKi [2] was greater than 6.70.

`Fc1cccc(-c2cnoc2-c2c[nH]c3ncc(C4CCNCC4)cc23)c1F` [Compound 62, 3-[4-(2,3-Difluoro-phenyl)-isoxazol-5-yl]-5-piperidin-4-yl-1H-pyrrolo[2,3-b]pyridine] gave a pKi [1] of 4.90 to 6.00 and a pKi [2] of 6.00 to 6.70.

`CC(=O)Nc1cccc(-c2cnc3[nH]cc(-c4oncc4-c4cccc(F)c4F)c3c2)c1` [Compound 65, N-(3-{3-[4-(2,3-Difluoro-phenyl)-isoxazol-5-yl]-1H-pyrrolo[2,3-b]pyridin-5-yl}-phenyl)-acetamide] showed a pKi [1] greater than 6.70 and a pKi [2] greater than 6.70.

With `O=c1ccc(-c2cnc3[nH]cc(-c4oncc4-c4cccc(F)c4F)c3c2)c[nH]1` [Compound 67, 5-{3-[4-(2,3-Difluoro-phenyl)-isoxazol-5-yl]-1H-pyrrolo [2,3-b]pyridin-5-yl}-1H-pyridin-2-one] the pKi [1] was greater than 6.70 and the pKi [2] was greater than 6.70.

`Fc1cccc(-c2cnoc2-c2c[nH]c3ncc(-c4ccc(N5CCNCC5)cc4)cc23)c1F` [Compound 68, 3-[4-(2,3-Difluoro-phenyl)-isoxazol-5-yl]-5-(4-piperazin-1-yl-phenyl)-1H-pyrrolo[2,3-b]pyridine] gave a pKi [1] greater than 6.70 and a pKi [2] greater than 6.70.

In the case of `Fc1ccc(-c2cnc3[nH]cc(-c4oncc4-c4cccc(F)c4F)c3c2)cn1` [Compound 69, 3-[4-(2,3-Difluoro-phenyl)-isoxazol-5-yl]-5-(6-fluoro-pyridin-3-yl)-1H-pyrrolo[2,3-b]pyridine], the pKi [1] was 6.00 to 6.70 and the pKi [2] was greater than 6.70.

`CN1CCN(c2ccc(-c3cnc4[nH]cc(-c5oncc5-c5cccc(F)c5F)c4c3)cc2)CC1` [Compound 70, 3-[4-(2,3-Difluoro-phenyl)-isoxazol-5-yl]-5-[4-(4-methyl-piperazin-1-yl)-phenyl]-1H-pyrrolo[2,3-b]pyridine methanesulfonate] gave a pKi [1] greater than 6.70 and a pKi [2] greater than 6.70.

`CN1CCN(c2ccc(-c3cnc4[nH]cc(-c5oncc5-c5cccc(F)c5F)c4c3)cn2)CC1` [Compound 71, 3-[4-(2,3-Difluoro-phenyl)-isoxazol-5-yl]-5-[6-(4-methyl-piperazin-1-yl)-pyridin-3-yl]-1H-pyrrolo[2,3-b]pyridine] showed a pKi [1] greater than 6.70 and a pKi [2] greater than 6.70.

`CCN1CCC(c2cnc3[nH]cc(-c4oncc4-c4cccc(F)c4F)c3c2)CC1` [Compound 72, 3-[4-(2,3-Difluoro-phenyl)-isoxazol-5-yl]-5-(1-ethyl-piperidin-4-yl)-1H-pyrrolo[2,3-b]pyridine] gave a pKi [1] of 4.90 to 6.00 and a pKi [2] greater than 6.70.

`Fc1cccc(-c2cnoc2-c2c[nH]c3ncc(-c4ccccn4)cc23)c1F` [Compound 73, 3-(4-(2,3-Difluoro-phenyl)-isoxazol-5-yl)-5-pyridin-2-yl-1H-pyrrolo[2,3-b]pyridine] showed a pKi [1] greater than 6.70 and a pKi [2] greater than 6.70.

In the case of `Fc1cccc(-c2cnoc2-c2c[nH]c3ncc(-c4c[nH]cn4)cc23)c1F` [Compound 76, 3-[4-(2,3-Difluoro-phenyl)-isoxazol-5-yl]-5-(3H-imidazol-4-yl)-1H-pyrrolo[2,3-b]pyridine], the pKi [1] was greater than 6.70 and the pKi [2] was greater than 6.70.

`Fc1cccc(-c2cnoc2-c2c[nH]c3ncc(-c4cnc5[nH]ccc5c4)cc23)c1F` [Compound 77, 3-[4-(2,3-Difluoro-phenyl)-isoxazol-5-yl]-1H,1′H-[5,5′]bi[pyrrolo[2,3-b]pyridinyl]] was tested, and the pKi [1] was greater than 6.70 and the pKi [2] was greater than 6.70.

In the case of `COc1ccnc(-c2cnc3[nH]cc(-c4oncc4-c4cccc(F)c4F)c3c2)c1` [Compound 78, 3-[4-(2,3-Difluoro-phenyl)-isoxazol-5-yl]-5-(4-methoxy-pyridin-2-yl)-1H-pyrrolo[2,3-b]pyridine], the pKi [1] was 6.00 to 6.70 and the pKi [2] was greater than 6.70.

`CN(C)Cc1ccnc(-c2cnc3[nH]cc(-c4oncc4-c4cccc(F)c4F)c3c2)c1` [Compound 82, (2-{3-[4-(2,3-Difluoro-phenyl)-isoxazol-5-yl]-1H-pyrrolo[2,3-b]pyridin-5-yl}-pyridin-4-ylmethyl)-dimethyl-amine] gave a pKi [1] greater than 6.70 and a pKi [2] greater than 6.70.
